The record followed here is US20260176260A1, “DUAL RAF AND TUBULIN INHIBITORS AND METHODS OF USE THEREOF” (Deciphera Pharmaceuticals, LLC, priority 2023, published 2026).

One assay deals with HPAF-II cells. Put plainly: HPAF-II cell proliferation assay (resazurin). In kind it is cell-based. Particulars: Homo sapiens; Table 2, inhibition of cell proliferation; read-out: HPAF-II. As for the experimental part: (§1) HPAF-II cells (catalog #CRL-1997) are obtained from the American Type Culture Collect (ATCC, Manassas, VA). Briefly, cells are grown in Minimum Essential Media supplemented with 10% characterized fetal bovine serum (Invitrogen, Carlsbad, CA) and 1% Penicillin/Streptomycin/L-Glutamine at 37° C., 5% CO2, and 95% humidity. Cells are expanded until reaching 70-95% confluency at which point they are sub-cultured or harvested for assay use. A serial dilution of test compound is dispensed into a 384-well black clear bottom plate in triplicate. 750 cells are added per well in 50 μL complete growth medium in the 384-well plate. Plates are incubated for 115 to 120 h at 37° C., 5% CO2, and 95% humidity. At the end of the incubation, 40 μL of a […] solution of resazurin (Sigma, St. Louis, MO) in PBS is added to each well of the plate and plates are incubated for an additional 18 to 24 h at 37° C., 5% CO2, and 95% humidity. Plates are read on a Synergy2 or equivalent reader (Biotek, Winooski, VT) using an excitation of 540 nm and an emission of 600 nm. Data is analyzed using Prism software (Graphpad, San Diego, CA) to calculate IC50 values.
Background: Alamar Blue is a resazurin reagent that responds to reducing activity.

The next assay concerns the target T1, B-Raf kinase (Homo sapiens, UniProt P15056).
T1 construct: purchased Sigma
In words: Biochemical assay for B-Raf (coupled pyruvate kinase/lactate dehydrogenase). As to conditions: Table 1, inhibition of biochemical activity; read-out: BRAF.

The test system of a further assay is MiaPaca-2 cells. In words: MiaPaca-2 cell proliferation assay (resazurin). Particulars: Homo sapiens, MIA PaCa-2; Table 2, inhibition of cell proliferation; read-out: MiaPaca-2. The format is cell-based. As for the experimental part: MiaPaca-2 cells (catalog #CRL-1420) are obtained from the American Type Culture Collect (ATTC, Manassas, VA). Briefly, cells were grown in DMVEM supplemented with […] fetal bovine serum (Invitrogen, Carlsbad, CA), 2.5% New Zealand sourced horse serum and 1% Penicillin/Streptomycin/L-Glutamine at 37° C., […], and […]. Cells are expanded until reaching […] at which point they are sub-cultured or harvested for assay use. For assays completed in 96-well plates, a serial dilution of test compound is dispensed into a 96-well black clear bottom plate in triplicate. Three thousand cells are added per well in 200 μL complete growth medium in the 96-well plate. Plates are incubated for 67 to 72 h at 37° C., 5% CO2, and 95% humidity. At the end of the incubation, 40 μL of a […] solution of resazurin (Sigma, St. Louis, MO) in PBS is added to each well of the plate and plates are incubated for an additional 5 to 6 h at 37° C., 5% CO2, and 95% humidity. For 384-well assays, a threefold, 8-point serial dilution of compound was spotted column wise into a 384 well black, clear bottom, tissue culture treated plate using the Beckman Coulter Echo 650. Likewise, a threefold, 8-point serial dilution of cobimetinib was spotted row wise into the 384 well black, clear bottom plate containing compound. DMSO concentration was constant across all wells at 0.4%. Seven hundred fifty cells are added per well in 50 μL complete growth medium in each 384-well plate. Plates are incubated for 67 to 72 h at 37° C., 5% CO2, and 95% humidity. At the end of the incubation, 10 μL of a 440 μM solution of resazurin (Sigma, St. Louis, MO) in PBS is added to each well of the plate and plates are incubated for an additional 4 to 6 h at 37° C., 5% CO2, and 95% humidity. Plates are read on a Synergy2 or equivalent reader (Biotek, Winooski VT) using an excitation of 540 nm and an emission of 600 nm. Data is analyzed using Prism software (Graphpad, San Diego, CA) to calculate IC50 values.

The test system of a further assay is HCT-116 cells. In words: HCT-116 cell proliferation assay (resazurin). The format is cell-based. As to conditions: Homo sapiens; Table 2, inhibition of cell proliferation; read-out: HCT-116. Here is the method:
HCT-116 cells (catalog #CCL-247) are obtained from the American Type Culture Collect (ATCC, Manassas, VA). Briefly, cells are grown in McCoy's 5A supplemented with 10% characterized fetal bovine serum (Invitrogen, Carlsbad, CA) and 1% Penicillin/Streptomycin/L-Glutamine at 37° C., 5% CO2, and 95% humidity. Cells are expanded until reaching 70-95% confluency at which point they are sub-cultured or harvested for assay use. A serial dilution of test compound is dispensed into a 384-well black clear bottom plate in triplicate. 375 cells are added per well in 50 μL complete growth medium in the 384-well plate. Plates are incubated for 67 to 72 h at 37° C., 5% CO2, and 95% humidity. At the end of the incubation, 40 μL of a […] solution of resazurin (Sigma, St. Louis, MO) in PBS is added to each well of the plate and plates are incubated for an additional 4 to 5 h at 37° C., 5% CO2, and 95% humidity. Plates are read on a Synergy2 or equivalent reader (Biotek, Winooski, VT) using an excitation of 540 nm and an emission of 600 nm. Data is analyzed using Prism software (Graphpad, San Diego, CA) to calculate IC50 values.

A further assay addresses T2, C-Raf kinase (Homo sapiens, UniProt P04049, Y340D/Y341D).
T2 construct: C-Raf residues 306-end; Y340D, Y341D with N-; purchased Sigma
In words: Biochemical assay for C-Raf (coupled pyruvate kinase/lactate dehydrogenase). As to conditions: Table 1, inhibition of biochemical activity; read-out: CRAF.

A further assay relates to Pa16c cells. In words: Pa16c cell proliferation assay (resazurin). The format is cell-based. Particulars: Table 2, inhibition of cell proliferation. As for the experimental part: as §1, with “Pa16c” for “HPAF-II”, “cells” for “cells (catalog #CRL-1997)”, “Dr. Channing Der, University of North Carolina at Chapel Hill.” for “the American Type Culture Collect (ATCC, Manassas, VA).”, “Dulbecco's Modified Eagle Medium” for “Minimum Essential Media”, “67” for “115”, “72” for “120”

pIC50: −log10 of the molar value.

T2 sequence (P04049 307-648 Y340D/Y341D): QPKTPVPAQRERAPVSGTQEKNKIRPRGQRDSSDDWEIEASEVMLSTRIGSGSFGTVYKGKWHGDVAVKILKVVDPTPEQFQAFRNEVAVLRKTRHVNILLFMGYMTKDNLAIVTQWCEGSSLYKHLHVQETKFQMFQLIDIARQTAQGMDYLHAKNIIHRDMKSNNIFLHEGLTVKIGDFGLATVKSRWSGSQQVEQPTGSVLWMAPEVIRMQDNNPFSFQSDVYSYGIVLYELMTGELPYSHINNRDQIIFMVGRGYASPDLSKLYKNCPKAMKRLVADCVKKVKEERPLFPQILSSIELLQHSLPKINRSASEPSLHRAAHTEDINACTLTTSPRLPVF
T1 sequence (P15056 416-766): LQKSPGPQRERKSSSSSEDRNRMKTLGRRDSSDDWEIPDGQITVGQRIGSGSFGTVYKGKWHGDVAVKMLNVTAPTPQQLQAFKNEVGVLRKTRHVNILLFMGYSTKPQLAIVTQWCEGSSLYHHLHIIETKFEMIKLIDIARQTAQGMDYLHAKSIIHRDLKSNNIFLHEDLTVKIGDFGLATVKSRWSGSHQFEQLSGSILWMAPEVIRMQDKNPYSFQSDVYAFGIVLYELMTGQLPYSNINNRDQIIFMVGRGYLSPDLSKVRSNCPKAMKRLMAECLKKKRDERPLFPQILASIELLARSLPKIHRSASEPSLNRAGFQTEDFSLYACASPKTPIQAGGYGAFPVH

As for `CNC(=O)c1cc(-c2cc(-c3cc(NC(=O)c4cc(C#N)cnn4)ccc3C)cc(OCCO)n2)ccn1` [Example 49], the pIC50 in the assay on HPAF-II cells was 6.00 to 6.30; on B-Raf kinase, above 7.00; in the assay with MiaPaca-2 cells it was 6.00 to 6.30; in the assay on HCT-116 cells, 6.00 to 6.30; at C-Raf kinase, above 7.00; in the assay with Pa16c cells it was above 7.00.

In the case of `CNC(=O)c1cc(-c2cc(-c3cc(NC(=O)c4cc(C(F)(F)F)cnn4)ccc3C)nc(NCCO)n2)ccn1` [Example 19], the pIC50 was 6.30 to 7.00 in the assay on HPAF-II cells; above 7.00 at B-Raf kinase; 6.30 to 7.00 in the assay on MiaPaca-2 cells; 6.30 to 7.00 in the assay with HCT-116 cells; above 7.00 at C-Raf kinase; 6.00 to 6.30 with Pa16c cells.

Take `CNC(=O)c1cc(-c2cc(-c3cc(NC(=O)c4cnc(C(F)(F)F)nc4)ccc3C)cc(N[C@H](C)CO)n2)ccn1` [Example 45]: the pIC50 in the assay with HPAF-II cells was 5.00 to 6.00; on B-Raf kinase it was 6.30 to 7.00; in the assay with MiaPaca-2 cells, 5.00 to 6.00; with HCT-116 cells it was 5.00 to 6.00; on C-Raf kinase, 6.30 to 7.00; in the assay on Pa16c cells it was 5.00 to 6.00.

In the case of `CNC(=O)c1cc(-c2cncc(-c3cc(NC(=O)c4cc(C(C)(F)F)cnn4)ccc3C)c2)ccn1` [Example 30], the pIC50 is 5.00 to 6.00 with HPAF-II cells; above 7.00 at B-Raf kinase; 5.00 to 6.00 in the assay with MiaPaca-2 cells; 6.00 to 6.30 in the assay with HCT-116 cells; above 7.00 at C-Raf kinase; 5.00 to 6.00 with Pa16c cells.

In the case of `CNC(=O)c1cc(-c2cc(-c3cc(NC(=O)c4cncc(C(F)(F)F)c4)ccc3C)cc(C)n2)ccn1` [Example 13], the pIC50 is 5.00 to 6.00 with HPAF-II cells; 6.30 to 7.00 at B-Raf kinase; 5.00 to 6.00 with MiaPaca-2 cells; 5.00 to 6.00 in the assay with HCT-116 cells; above 7.00 at C-Raf kinase; 5.00 to 6.00 in the assay on Pa16c cells.

Take `CNC(=O)c1cc(-c2cc(-c3cc(NC(=N)c4cc(C5CC5)cnn4)ccc3C)ccn2)ccn1` [Example 21]: the pIC50 was 5.00 to 6.00 with HPAF-II cells; 6.00 to 6.30 at B-Raf kinase; 5.00 to 6.00 in the assay on MiaPaca-2 cells; 5.00 to 6.00 in the assay with HCT-116 cells; 6.30 to 7.00 on C-Raf kinase; 5.00 to 6.00 in the assay on Pa16c cells.

On to `CCc1ccc(NC(=O)c2cc(C(F)(F)F)cnn2)cc1-c1ccnc(-c2ccnc(C(=O)NC)c2)c1` [Example 37], for which the pIC50 with HPAF-II cells, at B-Raf kinase, in the assay on MiaPaca-2 cells, with HCT-116 cells, at C-Raf kinase and in the assay with Pa16c cells was 5.00 to 6.00 throughout.

On to `CNC(=O)c1cc(-c2nc(NCCO)cc(-c3cc(NC(=O)c4cc(C5CC5)cnn4)ccc3C)n2)ccn1` [Example 22], for which the pIC50 in the assay with HPAF-II cells was 5.00 to 6.00; on B-Raf kinase, above 7.00; in the assay with MiaPaca-2 cells, 5.00 to 6.00; with HCT-116 cells, 5.00 to 6.00; at C-Raf kinase, above 7.00; with Pa16c cells, 5.00 to 6.00.

For `CNC(=O)c1cc(-c2cncc(-c3cc(NC(=O)c4cc(C(F)(F)F)cnn4)ccc3C)c2)ncn1` [Example 17], the pIC50 is 5.00 to 6.00 in the assay on HPAF-II cells; 6.30 to 7.00 on B-Raf kinase; 5.00 to 6.00 with MiaPaca-2 cells; 5.00 to 6.00 with HCT-116 cells; 6.30 to 7.00 at C-Raf kinase; 5.00 to 6.00 in the assay with Pa16c cells.

For `CNC(=O)c1cc(-c2cc(-c3cc(NC(=O)c4cc(C(C)(F)F)cnn4)ccc3C)cc(OCCO)n2)ccn1` [Example 43], the pIC50 in the assay with HPAF-II cells was 6.30 to 7.00; on B-Raf kinase it was above 7.00; in the assay with MiaPaca-2 cells, 6.00 to 6.30; in the assay with HCT-116 cells it was 6.30 to 7.00; on C-Raf kinase it was above 7.00; in the assay with Pa16c cells, 6.30 to 7.00.

`CNC(=O)c1cc(-c2cc(-c3cc(NC(=O)c4cc(C(F)(F)F)cnn4)ccc3C)cc(N[C@H](C)CO)n2)ccn1` [Example 29]: the pIC50 in the assay on HPAF-II cells was 6.30 to 7.00; at B-Raf kinase, above 7.00; in the assay with MiaPaca-2 cells it was 6.30 to 7.00; in the assay with HCT-116 cells it was above 7.00; at C-Raf kinase, above 7.00; in the assay with Pa16c cells, 6.30 to 7.00.

As for `CNC(=O)c1cc(-c2cc(-c3cc(NC(=O)c4cc(C(C)(F)F)cnn4)ccc3C)cc(N[C@H](C)CO)n2)ccn1` [Example 38], the pIC50 is 6.30 to 7.00 with HPAF-II cells; above 7.00 at B-Raf kinase; 6.30 to 7.00 in the assay with MiaPaca-2 cells; 6.30 to 7.00 with HCT-116 cells; above 7.00 on C-Raf kinase; 6.30 to 7.00 with Pa16c cells.

As to `CNC(=O)c1cc(-c2cncc(-c3cc(NC(=O)c4cc(C(F)(F)F)cnn4)ccc3C)c2)ccn1` [Example 16], the pIC50 with HPAF-II cells was 5.00 to 6.00; on B-Raf kinase, above 7.00; with MiaPaca-2 cells, 6.00 to 6.30; in the assay with HCT-116 cells it was 6.00 to 6.30; at C-Raf kinase, above 7.00; with Pa16c cells it was 5.00 to 6.00.
